According to US7427625B2, “Substituted thiatriazaacenaphthylene-6-carbonitrile kinase inhibitors” (Janssen Pharmaceutica, N.V., priority 2006, dated 2008):

What was measured:
Format in all cases: cell-based
A375 malignant melanoma = experiment: Cell Proliferation Inhibition Assay (14C-thymidine incorporation), A375; conditions: Homo sapiens, A-375
Method: (§1) The ability of a test compound to inhibit unregulated cell proliferation was determined by measuring incorporation of ^14C-labelled thymidine into newly synthesized DNA within cell lines derived from carcinomas originating from several tissues. Accordingly, the anti-proliferative effect of a compound on cells with a variety of phenotypes may be determined.
(§2) Carcinoma cell lines include those such as HeLa cervical adenocarcinoma (American Type Culture Collection (ATCC), Virginia, Cat. #CCL-2), A375 malignant melanoma (ATCC CRL-1619), SK-OV-3 ovarian adenocarcinoma (ATCC HTB-77), HCT-116 colon carcinoma (CCL-247), PC-3 prostate adenocarcinoma (ATCC CRL-1435), and MDA-MB-231 (Xenogen Corp.)
(§3) The carcinoma cells were trypsinized and counted. The cells (3000-8000 count) were added to each well of a 96-well CytoStar tissue culture treated scintillating microplate (Amersham #RPNQ0160) in complete medium (100 μL) and the plate was then incubated in complete medium for 24 hrs at 37° C. in an […] atmosphere containing 5% CO2. Test compound (1 μL) in 100% DMSO was added to the plate test-wells with DMSO only added to control-wells. The plate was incubated in complete medium for a second 24 hr period at 37° C. in an atmosphere containing 5% CO2.
(§4) An aliquot of a solution of Methyl ^14C-thymidine ([…]) (NEN #NEC568 or Amersham #CFA532) and complete medium (20 uL to provide 0.2 μCi/well) was then added to each well and the plate was incubated for a third 24 hr period at 37° C. in an atmosphere containing 5% CO2. The plate contents were then discarded, the plate was washed twice with PBS (200 μL) and then PBS (200 μL) was added to each well. The plate was sealed and the degree of methyl ^14C-thymidine incorporation was quantified on a Packard Top Count.

[1] = test system: HeLa cervical adenocarcinoma; experiment: Cell Proliferation Inhibition Assay (14C-thymidine incorporation), HeLa; conditions: Homo sapiens
Method: as §1, §2, §3, §4

HCT-116 colon carcinoma = experiment: Cell Proliferation Inhibition Assay (14C-thymidine incorporation), HCT116; conditions: Homo sapiens
Method: as §1, §2, §3, §4

Row | SMILES | IC50 (A375 malignant melanoma) | IC50 [1] | IC50 (HCT-116 colon carcinoma)
1 | CN(C)C1CCN(Cc2ccc(NC(=O)c3sc4ncc(C#N)c5c4c3NC(=O)N5c3c(Cl)ccc4c3OCO4)cc2)CC1 [Cpd 42, 5-(5-chloro-benzo[1,3]dioxol-4-yl)-6-cyano-4-oxo-4,5-dihydro-3H-1-thia-3,5,8-triaza-acenaphthylene-2-carboxylic acid [4-(4-dimethylamino-piperidin-1-ylmethyl)-phenyl]-amide] | > 100 µM | > 100 µM | > 100 µM
2 | N#Cc1cnc2sc(C(=O)Nc3ccc(CN4CCCCC4)cc3)c3c2c1N(c1ccc(Oc2ccccc2)cc1)C(=O)N3 [Cpd 49, 6-cyano-4-oxo-5-(4-phenoxy-phenyl)-4,5-dihydro-3H-1-thia-3,5,8-triaza-acenaphthylene-2-carboxylic acid (4-piperidin-1-ylmethyl-phenyl)-amide] | 1.38 µM | 2.19 µM | 0.985 µM
3 | CC(C)(C)OC(=O)NC1CCN(Cc2ccc(NC(=O)c3sc4ncc(C#N)c5c4c3NC(=O)N5c3c(Cl)ccc4c3OCO4)cc2)CC1 [Cpd 46, [1-(4-{[5-(5-chloro-benzo[1,3]dioxol-4-yl)-6-cyano-4-oxo-4,5-dihydro-3H-1-thia-3,5,8-triaza-acenaphthylene-2-carbonyl]-amino}-benzyl)-piperidin-4-yl]-carbamic acid tert-butyl ester] | > 10 µM | > 10 µM | > 10 µM
4 | CN(C)C1CCN(C(=O)c2sc3ncc(C#N)c4c3c2NC(=O)N4c2c(Cl)ccc3c2OCO3)CC1 [Cpd 41, 5-(5-chloro-benzo[1,3]dioxol-4-yl)-2-(4-dimethylamino-piperidine-1-carbonyl)-4-oxo-4,5-dihydro-3H-1-thia-3,5,8-triaza-acenaphthylene-6-carbonitrile] | > 100 µM | > 100 µM | > 10 µM
5 | N#Cc1cnc2sc(C(=O)Nc3ccc(CCN4CCCCC4)cc3)c3c2c1N(c1ccc(Oc2ccccc2)cc1)C(=O)N3 [Cpd 48, 6-cyano-4-oxo-5-(4-phenoxy-phenyl)-4,5-dihydro-3H-1-thia-3,5,8-triaza-acenaphthylene-2-carboxylic acid [4-(2-piperidin-1-yl-ethyl)-phenyl]-amide] | 8.29 µM | > 10 µM | 15.8 µM
6 | COc1cc(NC(=O)c2sc3ncc(C#N)c4c3c2NC(=O)N4c2ccc(Oc3ccccc3)cc2)ccc1CN1CCOCC1 [Cpd 45, 6-cyano-4-oxo-5-(4-phenoxy-phenyl)-4,5-dihydro-3H-1-thia-3,5,8-triaza-acenaphthylene-2-carboxylic acid (3-methoxy-4-morpholin-4-ylmethyl-phenyl)-amide] | > 10 µM | > 100 µM | > 10 µM
